From publication PMC8591608, “DNDI-6148: A Novel Benzoxaborole Preclinical Candidate for the Treatment of Visceral Leishmaniasis” (Journal of Medicinal Chemistry, 2021)
Where two headings read alike, the source gives them in different places.

What was measured:
[1] = Hamster oral pharmacokinetic study; format: in vivo, golden Syrian hamsters; settings: female, golden Syrian, plasma
Protocol: […] The K2-EDTA anticoagulant was added to blood samples collected from 0.25 to 36 h, which were processed to plasma and stabilized with phosphoric acid (1% final) before analysis by LC-MS/MS. PK parameters were calculated using WinNonlin software (version 6.3).

[2] = PMM cytotoxicity assay; format: cell-based; settings: mouse, primary peritoneal mouse macrophages (PMM); for CC50 at 72 h / CC50 at 3 days: geometric mean of at least two independent tests
Protocol: (§1) Primary peritoneal mouse macrophages (PMM) were collected two days after peritoneal stimulation with a 2% potato starch suspension. MRC5SV2 cells (diploid human embryonic lung fibroblasts) were cultured in minimal essential medium (MEM) containing Earle’s salts, supplemented with L-glutamine, NaHCO3, and 5% inactivated fetal calf serum. All cultures and assays were conducted at 37 °C under an atmosphere of 5% CO2.
(§2) Assays were performed in sterile 96-well microtiter plates, each well containing 10 μL of the compound dilution and 190 μL of MRC5SV2 or PMM inoculum (3 × 10^4 cells/mL). Cell growth was compared to untreated controls (100% growth) and assay-media controls (0% growth). After three-day incubation, cell viability was assessed fluorometrically by adding resazurin (50 μL/well of a stock solution in phosphate buffer (50 μg/mL)), incubating for 4 h and measuring fluorescence (λex 550 nm, λem 590 nm). The results were expressed as a percentage reduction in cell growth compared to untreated control wells. […] Tamoxifen was included as the reference drug.

[3] = Liver microsome stability, hamster; format: in vitro ADME; settings: golden (Syrian), hamster liver microsomes
Protocol: (§3) Tests were performed by WuXi AppTec, China. Test compounds (at 1 μM) or positive controls (testosterone, propafenone, and diclofenac) were incubated at 37 °C with liver microsomes from Balb/c mouse, golden (Syrian) hamster, Sprague-Dawley rat, Beagle dog, or human in the presence of a NADPH regenerating system and phosphate buffer (100 mM, pH 7.4) at 0.4 or 0.8 mg/mL microsomal protein. The samples were removed at time intervals from 0 to 60, 90, or 120 min and immediately mixed with cold methanol supplemented or not with acid (3% formic acid) and centrifuged prior to analysis by LC-MS/MS using tolbutamide or propranolol as internal standards.

[4] = test system: L. infantum; experiment: L. infantum hamster model of VL; format: in vivo
Protocol: (§4) L. infantum (MHOM/MA/67/ITMAP263) and L. donovani (MHOM/ET/67/L82) were maintained in the golden (Syrian) hamster (Mesocricetus auratus). Ex vivo amastigotes were collected from the spleen of an infected donor hamster using two centrifugation purification steps: 230g for 10 min, keeping the supernatant layer, and 4100g for 30 min, keeping the pellet. The spleen parasite burden was assessed using the Stauber technique.[25] For in vitro assays, the inoculum was prepared in RPMI-1640 medium, supplemented with 200 mM L-glutamine, 16.5 mM NaHCO3, and 5% inactivated fetal calf serum. For the in vivo model, an infection inoculum containing 2 × 10^7 amastigotes/100 μL was prepared in phosphate-buffered saline (PBS).
Female golden hamsters for the in vivo model of visceral leishmaniasis were purchased from Janvier, France (body weight 80–100 g). This study using laboratory rodents was carried out in strict accordance with all mandatory guidelines (EU directives, including the Revised Directive 2010/63/EU on the protection of Animals used for Scientific Purposes that came into force on 01/01/2013, and the declaration of Helsinki in its latest version) and was approved by the ethical committee of the University of Antwerp, Belgium (UA-ECD 2011-74). Female golden hamsters for the pharmacokinetic study were purchased from Vital River, Beijing, China. This study was conducted following institutional review and in accordance with institutional and national guidelines at WuXi AppTec (the Institutional Animal Care and Use Committee (IACUC)). Balb/c mice for the in vivo model of visceral leishmaniasis (LSHTM) were purchased from Charles River, U.K., and related studies were conducted under license PPL 70/8427 from the U.K. Home Office.
Female golden hamsters were randomly allocated to experimental groups of six animals each, based on body weight. At the start of the experiment (Day 0), each animal was infected with L. infantum or L. donovani inoculum, delivered by intracardial injection. Six hamsters were assigned to the vehicle-treated, infected control group. Six hamsters were assigned per group (1 group/compound) for the evaluation of compound and miltefosine. […] At Day 35 (10 days after the final oral dose), all animals were euthanized and autopsies were conducted. The study evaluated the following parameters. • 1. Adverse effects: all animals were observed daily for the occurrence/presence of adverse effects. • 2. Body weight: all animals were weighed twice per week to monitor general health. • 3. Parasite burden: amastigote burdens in each target organ (liver, spleen, and bone marrow) were determined at Day 35. The organs of individual animals were weighed (except for bone marrow). Impression smears were stained with Giemsa for microscopic examination of the total amastigote burden, defined as the mean number of amastigotes per cell multiplied by the number of cells counted (minimum 500 nuclei); the results were expressed as a percentage reduction in amastigote burden compared to vehicle-treated, infected control animals.

[5] = test system: L. donovani; experiment: Intramacrophage L. donovani assay; format: cell-based; settings: for EC50: Leishmania donovani
Protocol: as §4
(§5) The assay was performed in sterile 96-well microtiter plates, each well containing 10 μL of the compound dilution and 190 μL of the PMM/amastigote inoculum (3 × 10^4 cells/4.5 × 10^5 parasites per well). Parasite multiplication was compared to untreated infected controls (100% growth) and uninfected controls (0% growth). After five-day incubation, total parasite burdens were microscopically assessed after staining the cells with a 10% Giemsa solution. The results were expressed as a percentage reduction in parasite burden compared to untreated control wells. EC50 values were determined using an extended dose range (2-fold compound dilutions, 8-point concentration curve). Miltefosine was used as the reference drug.[26] For selected compounds, this assay format was also run using the L. donovani inoculum.

[6] = MRC5 cytotoxicity assay; format: cell-based; settings: human, MRC5SV2 cells (human embryonic lung fibroblasts), geometric mean of at least two independent tests
Protocol: as §1, §2

[7] = Liver microsome stability, human; format: in vitro ADME; settings: human liver microsomes
Protocol: as §3

[8] = test system: L. infantum; experiment: Intramacrophage L. infantum assay; format: cell-based; settings: Leishmania infantum
Protocol: as §4, §5

[9] = single p.o. dose 50 mg/kg, read-out: AUC0–24 after single p.o. dose of 50 mg/kg
[10] = pH 7.4, Table 4, read-out: HamLM Clint
[11] = Table 6, geometric mean of at least two independent tests
[12] = pH 7.4, Table 4, read-out: HLM Clint
[13] = Table 4, geometric mean of at least two independent tests, read-out: intramacrophage L. infantum EC50
[14] = pH 7.4, Table 5, read-out: HamLM Clint
[15] = pH 7.4, Table 5, read-out: HLM Clint
[16] = Table 5, geometric mean of at least two independent tests, read-out: intramacrophage L. infantum amastigote EC50
[17] = Table 2, geometric mean of at least three independent assays

SMILES | CC50 at 72 h ([2]; Table 4) [µM] | reduction in parasite burden, bone marrow, 5 days ([4]; 25 mg/kg BID p.o. for 5 days) [%] | reduction in parasite burden, liver, 5 days ([4]; 25 mg/kg BID p.o. for 5 days) [%] | reduction in parasite burden, spleen, 5 days ([4]; 25 mg/kg BID p.o. for 5 days) [%] | reduction in parasite burden, bone marrow, 5 days ([4]; 50 mg/kg BID p.o. for 5 days) [%] | reduction in parasite burden, liver, 5 days ([4]; 50 mg/kg BID p.o. for 5 days) [%] | reduction in parasite burden, spleen, 5 days ([4]; 50 mg/kg BID p.o. for 5 days) [%] | EC50 [5, 11] [µM] | microsomal CLint at 2 h, 1 µM [3, 14] [µL/min/mg] | CC50 at 72 h ([6]; Table 5) [µM] | microsomal CLint at 1 μM [7, 15] [µL/min/mg] | EC50 [8, 16] [µM] | CC50 at 72 h ([2]; Table 5) [µM] | other results
O=C(Nc1ccc2c(c1)B(O)OC2)c1cn(CC(F)(F)F)nc1C(F)(F)F [Compound 5, N-(1-Hydroxy-1,3-dihydrobenzo[c][1,2]oxaborol-6-yl)-1-(2,2,2-trifluoroethyl)-3-(trifluoromethyl)-1H-pyrazole-4-carboxamide] | 50 | 77.0 | 89.7 | 90.0 | 98.0 | 99.7 | 99.2 | 1 | – | – | – | – | – | AUC(0-t) [1, 9]: 21000 ng·h/mL; CC50 at 3 days ([2]; Table 6): 53.8 µM; microsomal CLint at 2 h, 1 µM [3, 10]: 41 µL/min/mg; CC50 at 3 days ([6]; Table 4): > 64 µM; microsomal CLint at 1 μM [7, 12]: < 11.9 µL/min/mg; EC50 [8, 13]: 1.6 µM
Cc1c(C(=O)Nc2ccc3c(c2)B(O)OC3)cnn1-c1ccccn1 [Compound 16, N-(1-Hydroxy-1,3-dihydrobenzo[c][1,2]oxaborol-6-yl)-5-methyl-1-(pyridin-2-yl)-1H-pyrazole-4-carboxamide] | 59 | 72.2 | 87.8 | 87.7 | 95.1 | 99.6 | 98.5 | 1.2 | – | – | – | – | – | AUC(0-t) ([1]; study run using a single 25 mg/kg p.o. dose, read-out: AUC0–24 after single p.o. dose): 7900 ng·h/mL; CC50 at 3 days ([2]; Table 6): > 64 µM; microsomal CLint at 2 h, 1 µM [3, 10]: 57 µL/min/mg; CC50 at 72 h ([6]; Table 4): 61 µM; CC50 at 3 days ([6]; Table 6): 61.1 µM; microsomal CLint at 1 μM [7, 12]: < 11.9 µL/min/mg; EC50 [8, 13]: 3.1 µM
O=C(Nc1ccc2c(c1)B(O)OC2)c1cn(-c2ccccn2)nn1 [Compound 22, N-(1-Hydroxy-1,3-dihydrobenzo[c][1,2]oxaborol-6-yl)-1-(pyridin-2-yl)-1H-1,2,3-triazole-4-carboxamide] | – | – | – | – | – | – | – | – | 18 | 44.8 | < 11.9 | 1.7 | – | CC50 at 3 days ([2]; Table 5): > 64 µM
COc1cccc(-n2nnc(C(=O)Nc3ccc4c(c3)B(O)OC4)c2C)n1 [Compound 25, N-(1-Hydroxy-1,3-dihydrobenzo[c][1,2]oxaborol-6-yl)-1-(6-methoxypyridin-2-yl)-5-methyl-1H-1,2,3-triazole-4-carboxamide] | – | – | – | – | – | – | – | – | 40 | – | – | 0.8 | 32 | CC50 at 3 days ([6]; Table 5): > 64 µM; microsomal CLint at 2 h, 1 µM [7, 15]: 23 µL/min/mg
Cc1oc(C(=O)Nc2ccc3c(c2)B(O)OC3)cc1-c1ccccn1 [Compound 29, N-(1-Hydroxy-1,3-dihydrobenzo[c][1,2]oxaborol-6-yl)-5-methyl-4-(pyridin-2-yl)furan-2-carboxamide] | – | – | – | – | – | – | – | – | 82 | 45 | < 11.9 | 1.7 | 29 | –
Cc1c(-c2ccccn2)csc1C(=O)Nc1ccc2c(c1)B(O)OC2 [Compound 30, N-(1-Hydroxy-1,3-dihydrobenzo[c][1,2]oxaborol-6-yl)-3-methyl-4-(pyridin-2-yl)thiophene-2-carboxamide] | – | – | – | – | – | – | – | – | 88 | 2.3 | < 11.9 | 0.6 | 32 | –
O=C(Nc1ccc2c(c1)B(O)OC2)c1nnc(-c2ccccn2)o1 [Compound 31, N-(1-Hydroxy-1,3-dihydrobenzo[c][1,2]oxaborol-6-yl)-5-(pyridin-2-yl)-1,3,4-oxadiazole-2-carboxamide] | – | 55.0 | 67.3 | 69.0 | 99.7 | 99.4 | 99.4 | 9.4 | 12 | – | – | 2 | – | AUC(0-t) [1, 9]: 21000 ng·h/mL; CC50 at 3 days ([2]; Table 5): > 64 µM; fold weaker against L. donovani compared with L. infantum potency ([5]; intramacrophage potency): about 5 fold; CC50 at 3 days ([6]; Table 5): > 64 µM; microsomal CLint at 2 h, 1 µM [7, 15]: 19 µL/min/mg
CCCCCCCCCCCCCCCCOP(=O)([O-])OCC[N+](C)(C)C [miltefosine, reference compound] | 33 | – | – | – | – | – | – | – | – | – | – | – | – | EC50 at 3 days [2, 17]: 33 µM; EC50 [5, 17]: 10 µM; CC50 at 3 days ([6]; Table 4): > 64 µM; EC50 ([8]; Table 2, geometric mean of at least three independent assays, read-out: intramacrophage L. infantum EC50): 10 µM
